A short description of this data set: Certificate of analysis: solubility. It counts as physicochemical. The following applies: batch SCP-PAMA-03; specification: Soluble in water.

With `O=C(Cc1ccccc1)C(=O)[O][Mg][O]C(=O)C(=O)Cc1ccccc1` [Alpha keto phenylalanine magnesium], the Solubility result is “Soluble in water”.
